Data set [1] concerns A549 (lung adenocarcinoma). Nature of the data set: Cytotoxicity test (Cell Titer, 5 days), tumor line. Format: cell-based, human. As for the experimental part:
(§1) Extracts (aqueous, ethyl, acidic) were obtained from 9 macrofungi species collected by INBio in the Costa Rican rainforests. All of them were subjected to a cytotoxicity test with two human cell lines: A549 (lung adenocarcinoma) and NL20 (immortalized, non-tumor line, obtained from the pulmonary epithelium). Cells were plated in 96-well plates at densities of 2,000 (A549) or 10,000 (NL20) cells per well. Once the cells were stuck to the bottom, serial concentrations of each extract were added and incubated at 37° C. for 5 days under a humidified atmosphere (85% relative humidity) and containing 5% CO2. Eight repeats (wells) were studied for each concentration. At the end of the incubation process, 20 μl of Cell Titer (Promega) were added per well and left for 4 h to allow the formation of the colored formazan salts. Colorimetric quantification was performed with a plate reader (POLARstar Omega) using a wavelength of 490 nm, following already published protocols (Coderch C, Diaz de C M, Zapico J M, Pelaez R, Larrayoz I M, Ramos A, et al. In silico identification and in vivo characterization of small molecule therapeutic hypothermia mimetics. Bioorg Med Chem 2017; 25:6597-604). […]

Data set [2] deals with NL20 (immortalized, non-tumor line, pulmonary epithelium). Nature of the data set: Cytotoxicity test (Cell Titer, 5 days), non-tumor line. Format: cell-based, human. As for the experimental part:
as §1

For another data set, the system named is A549 xenograft tumors. Nature of the data set: Human lung cancer xenografts in immunosuppressed mice. Format: in vivo, mice (NOD scid gamma). The protocol: In this case, 20 male mice of the NOD scid gamma strain (NSG, Stock No. 005557, The Jackson Laboratory) were used. All of them were injected subcutaneously with 10 million A549 cells and left for 2 weeks until the tumors became measurable. Two groups of 10 mice each were randomized and marked as control group (diamonds) and TG10-treated group (squares). From this point, intratumor injections with 100 μl of PBS (control group) or 0.1 mg/ml of TG10 in PBS (treated group) were applied 3 times per week. Before each injection, tumor volumes were measured with a caliper. The mice were euthanized when the tumors reached a size incompatible with animal welfare.
Background: In xenograft studies the graft and the host belong to different species.

Data set [3] deals with actin cytoskeleton of NL20 cells. Nature of the data set: Modulation of the actin cytoskeleton (Bodipy-falacidine staining, confocal), non-tumor cells. Format: cell-based, human. As to conditions: 0.03 mg/ml, 24-hour treatment. An excerpt: (§2) Many antitumor substances exert their effects by modulating the cytoskeleton of tumor cells, either acting on microtubules or on actin filaments (Zhang S, Menche D, Zahler S, Vollmer A M, Liebl J, Forster F. In vitro anti-cancer effects of the actin-binding natural compound rhizopodin. Pharmazie 2015; 70:610-5.). To check whether compound TG10 has a similar mechanism of action as other antitumor drugs, tumor cells (A549) and non-tumor cells (NL20) were subjected to a 24-hour treatment with 0.03 mg/ml TG10. At the end of this time, the cells were fixed with 10% formaldehyde for 10 min, permeabilized with 0.1% Triton X-100 for 10 min and exposed to 1: 200 Bodipy-falacidine and 1: 1000 DAPI (Molecular Probes) for 1 h. The images were obtained with a confocal laser microscope (TCS SP5, Leica).

Data set [4] relates to actin cytoskeleton of A549 cells. Nature of the data set: Modulation of the actin cytoskeleton (Bodipy-falacidine staining, confocal), tumor cells. Format: cell-based, human. As to conditions: 0.03 mg/ml, 24-hour treatment.
Excerpt: as §2

Entries after “also recorded” stand apart in the source; their conditions may differ.

“2S-TG (C18:2, 9z, 12z; C16:0; C18:1, 9z) [TG9]”: the “Antitumor activity against A549 (toxicity test of synthesized TGs)” value in data set [1] is given as “no effect on cells”. For the same compound, in data set [2], the “Toxicity to normal cells (NL20)” value is “no effect on cells”.
Consider `CCCCC/C=C\C/C=C\CCCCCCCC(=O)OC[C@@H](COC(=O)CCCCCCC/C=C\CCCCCCCC)OC(=O)CCCCCCCCCCCCCCC` [TG10, 2R-TG (C18:2, 9z, 12z; C16:0; C18:1, 9z)], for which the “Tumor growth versus control (in words)” value in the data set on A549 xenograft tumors (intratumor 0.1 mg/ml in PBS, 3 times per week, FIG. 5) is “continued to grow, but at a slower rate”. Also, the “Average tumor volume at the end of the experiment” value with A549 xenograft tumors (intratumor 100 μl of 0.1 mg/ml in PBS, 3 times per week from day 15, end day 48, control 2900 mm^3, p<0.05) was found to be 1600 mm^3. Further, the “Effect on actin fibers of NL20 cells” value in data set [3] was “maintained the filamentous structure of actin”. In data set [1], the “Antitumor activity against A549 (toxicity test of synthesized TGs)” value was “exhibited antitumor activity; also recorded: TG10 (active)”. Also, the “Effect on actin fibers of A549 cells” value in data set [4] is given as “completely lost the polymerized actin fibers”. In data set [2], the “Toxicity to normal cells (NL20)” value is on record as “not toxic to normal cells”.

(Values after patent US20230181514A1, “NEW TRIGLYCERIDE OBTAINED FROM A MACROCYBE TITANS EXTRACT, CLINICAL APPLICATIONS AND PRODUCTION METHOD” (BIO TECH STARE GLOBAL S.R.L., priority 2020, published 2023).)
